Test results taken from patent US8158360B2, “Effects of inhibitors of FGFR3 on gene transcription” (priority 2005, dated 2012).

What was measured:
Experiment in all cases: Sensitivity of multiple myeloma cell line to CHIR-258 treatment
Assay type in all cases: cell-based, human
KMS11 = conditions: KMS11: Ras WT, FGFR3Y373C mutant
UTMC2 = conditions: UTMC2: Ras WT, FGFR3WT
U266 = conditions: U266: Ras WT, FGFR3 negative
H929 = conditions: H929: N13 Ras mutant, FGFR3 wild-type (WT)
KMS18 = conditions: KMS18: Ras WT, FGFR3G384D mutant

CN1CCN(c2ccc3nc(-c4c(N)c5c(F)cccc5[nH]c4=O)[nH]c3c2)CC1 [CHIR-258, 4-Amino-5-fluoro-3-[6-(4-methylpiperazin-1-yl)-1H-benzimidazol-2-yl]quinolin-2(1H)-one]
sensitivity of cell line to treatment (KMS11): sensitive
sensitivity of cell line to treatment (UTMC2): resistant
sensitivity of cell line to treatment (U266): resistant
sensitivity of cell line to treatment (H929): resistant
sensitivity of cell line to treatment (KMS18): sensitive
